Laboratory results reported in patent US6989397B1, “Iron chelators and uses thereof” (University of Queensland, priority 1999, dated 2006).
“And” between values parts separate entries of the source, which are not always exact repeats. Equal values may be shown once. Read-outs that look alike come from different tables or passages of the source. Values belong to the compound of their own block, whether it stands above or below them.

Legend:
[1] = system: iron-regulatory proteins (IRPs); assay: iron regulatory protein gel-retardation assay (IRP-RNA binding activity); assay type: cell-based, human; details: SK-N-MC cells, 20 hr incubation; chelators 25 μM, DFO 100 μM, FAC 100 μg/ml
Procedure: FIG. 5. The effect of the chelators on the RNA-binding activity of the iron-regulatory proteins (IRPs) in the SK-N-MC neuroepithelioma cells. Cells were incubated for 20 h with either medium alone (control), ferric ammonium citrate (FAC: 100 μg/ml), DFO (100 μM), or the other chelators (25 μM).
A gel-retardation assay was used to measure the interaction between the IRPs and IRE using established techniques (Leibold et al., […]. Proc. Natl. Acad. Sci. USA 85 2171–5; Müllner et al., 1989 Cell 58 373–82). Briefly, after incubation with medium alone (control) or medium containing ferric ammonium citrate (100 μg/ml: Aldrich Ltd., Sydney, Australia) or the chelator. […] cells were washed with ice-cold phosphate-buffered saline (PBS) and lysed at 4° C. in 40 μl of ice-cold Munro extraction buffer (10 mM HEPES, pH 7.6, 3 mM MgCl2, 40 mM KCl, 5% glycerol, 1 MM dithiothreitol and 0.5% Nonidet P-40). After lysis, the samples were then centrifuged at 10,000 rpm for 3 mins at 4° C. to remove nuclei and the supernatant stored at −70° C. Frozen cytoplasmic extracts were thawed on ice and then centrifuged at 15,000 rpm for 10 min at 4° C. The protein concentration of the soluble supernatant was determined using the BioRad protein assay (BioRad Ltd., USA). Samples of cytoplasmic extracts were diluted to a protein concentration of 100 μg/ml in Munro buffer without Nonidet P-40 and 1 μg aliquots were analyzed for IRP by incubation with 0.1 ng (approximately 1×10^5 cpm) of ^32P-labelled pGL66 RNA transcript (Leibold et al., 1988). The riboprobe was transcribed in vitro from linearized plasmid templates using SP6 RNA polymerase in the presence of α-^32P UTP (Dupont, NEN). This latter reaction was performed using the Promega Riboprobe In Vitro Transcription Kit (Promega, Madison, Wis., USA). The probe was subsequently purified on a 6% urea/PAGE gel. To form RNA-protein complexes, cytoplasmic extracts containing 1 μg of protein were incubated for 10 mins at room temperature with the ^32P-labelled riboprobe. Unprotected probe was degraded by incubation with 1 U of RNAse T1 for 10 mins at room temperature. Heparin (Sigma) at a final concentration of 5 mg/ml was then added and incubated with the extract for another 10 min at room temperature to exclude non-specific binding. RNA-protein complexes were analyzed in 6% non-denaturing polyacrylamide gels at 4° C. as described by Konarska et al., 1986, Cell 46 845–55. Gels were dried, covered in plastic film and exposed to Kodak XAR films at −70° C. with an intensifying screen.
An important effect of intracellular Fe depletion using DFO is the activation of RNA-binding activity of the iron regulatory proteins (IRP's) (Hentze et al., 1996, Proc. Natl. Acad. Sci. USA 93 8175–82). […] The present inventors examined the effect of a 20 hr incubation with 311, PIH and the PCIH analogues (25 μM) on IRP-RNA binding activity in SK-N-MC cells. In all experiments, DFO (100 μM) was used as a positive control to deplete cells of Fe and increase IRP-RNA binding activity. In contrast, ferric ammonium citrate (FAC: 100 μg/ml) was used to donate Fe to cells and reduce IRP-RNA binding.

[2] = system: SK-N-MC neuroepithelioma cells; assay: 59Fe release from prelabelled cells (iron efflux); assay type: cell-based, human; details: 3 hr labelling, 3 hr reincubation, ligands 50 μM, DFO 100 μM, FIG. 2A screening experiment
Procedure: The effect of chelators on ^59Fe uptake from ^59Fe-Tf and ^59Fe release from prelabelled cells was studied using standard procedures reported previously (Richardson et al., 1994, J. Lab Clin. Med. 124 660–71). The amount of ^59Fe internalized by the cells was measured by incubation with the general protease pronase (1 mg/ml) for 30 min at 4° C. to remove membrane-bound ^59Fe and Tf (Richardson et al., 1990; Baker et al., 1998, Biochim. Biophys. Acta 1380 21–30).
The efflux of ^59Fe from SK-N-MC cells was examined after a 3 hr labelling period with ^59Fe-Tf (0.75 μM) followed by a 3 hr reincubation in the presence and absence of DFO (100 μM) or the remainder of the ligands at 50 μM (FIG. 2A).
Table 1. The effect of DFO, 311, PCTH, PCBH, or PCBHH on ^59Fe release from BE-2 neuroblastoma cells, SK-N-MC neuroepithelioma cells, and SK-Mel-28 melanoma cells. Cells were labeled for 3 h at 37° C. with ^59Fe-transferrin (0.75 μM), washed, and then reincubated with the chelators for 3 h at 37° C. […] Results are Mean±SD of three determinations in a typical experiment.

[3] = system: 59Fe-loaded reticulocytes; assay: mobilisation of 59Fe from 59Fe-loaded reticulocytes (mitochondrial Fe overload model); assay type: cell-based, rabbit; details: for cellular 59Fe mobilized from 59Fe-loaded reticulocytes after 240 min: chelators 200 μM, 240 min of incubation; for cellular 59Fe released from 59Fe-loaded reticulocytes, 1 h reincubation (FIG. 9): chelator concentration 200 μM (range 10–200 μM), reincubated 1 h at 37° C.
Procedure: (§1) FIG. 7. The effect of reincubation time with the Fe chelators on ^59Fe mobilization from ^59Fe-loaded reticulocytes. The cells were labelled with ^59Fe-transferrin (3.75 μM) in the presence of the heme synthesis inhibitor, succinylacetone (1 mM), and incubated with the cells for 1 h at 37° C. The ^59Fe-labelled reticulocytes were then incubated with the chelators (200 μM) for 15–240 min at 37° C. The results are Mean±SD (3 determinations) in a typical experiment of three performed.
as §1, with “9.” for “7.”, “chelator concentration” for “reincubation time with the Fe chelators”, “(10–200” for “(200”
Reticulocytosis was induced by standard procedures (Richardson, D. R., Ponka, P and Vyoral, D (1996) Blood 87, 3477–3488) in New Zealand white rabbits by repeated phlebotomy by cardiac puncture using a protocol approved by the McGill University Animal Care Committee. Reticulocytes were identified based on staining with new methylene blue, and cell counts were determined using an improved Neubauer counting chamber.
Reticulocytes were obtained from chronically bled rabbits as described above and were incubated with 1 mM succinylacetone (SA: Sigma) to inhibit heme synthesis. After a 15 min preincubation in the presence of SA, ^59Fe-Tf ([…]) was added and incubated with the cells for 1 H at 37° C. with shaking. After this incubation the reticulocytes were washed three times with ice-cold PBS to remove non-specifically bound ^59Fe-Tf. The washed ^59Fe-labelled reticulocytes (30–35 μL) were incubated in buffered salt solution (250 μL final volume) with the apochelators. The SA was present in all incubations with the chelators to prevent the utilization of non-heme ^59Fe for heme synthesis. After the incubation, ^59Fe was measured both in washed reticulocytes and in the medium, and the percentage of ^59Fe mobilized from the reticulocytes was then calculated.

[4] = system: SK-N-MC neuroepithelioma cells; assay: internalized 59Fe uptake from 59Fe-transferrin; assay type: cell-based, human; details: SK-N-MC; 3 hrs at 37° C.; chelators 50 μM, DFO 100 μM; FIG. 2B screening experiment
Procedure: The effect of chelators on ^59Fe uptake from ^59Fe-Tf and ^59Fe release from prelabelled cells was studied using standard procedures reported previously (Richardson et al., 1994, J. Lab Clin. Med. 124 660-71). The amount of ^59Fe internalized by the cells was measured by incubation with the general protease pronase (1 mg/ml) for 30 min at 4° C. to remove membrane-bound ^59Fe and Tf (Richardson et al., 1990; Baker et al., 1998, Biochim. Biophys. Acta 1380 21-30). […] To determine the ability of the chelators to inhibit ^59Fe uptake from ^59Fe-Tf (0.75 μM). […] Table 2. The effect of DFO, 311, […], or PCBHH on internalized ^59Fe uptake from ^59Fe-transferrin by BE-2 neuroblastoma cells, SK-N-MC neuroepithelioma cells, and SK-Mel-28 melanoma cells. Cells were incubated with the chelators and ^59Fe-transferrin (0.75 μM) for 3 h at 37° C., washed, and incubated for 30 min at 4° C. with pronase (1 mg/ml) to separate the internalized from the membrane-bound ^59Fe. All chelators were screened at a concentration of 50 μM except for DFO which was examined at 100 μM. Results are mean±SD (three determinations) from a typical experiment.

aqueous solubility = assay type: physicochemical; details: water / aqueous solutions
[5] = system: iron-regulatory proteins (IRPs); assay: iron regulatory protein gel-retardation assay (IRP-RNA binding activity); assay type: cell-based, human
[6] = system: SK-N-MC neuroepithelioma cells; assay: 3H-thymidine, 3H-leucine or 3H-uridine incorporation; assay type: cell-based, human; details: 20 hr with chelators 50 μM, DFO 100 μM, then label 2 h, Mean±SD
Procedure: Labelling of cells with ^3H-thymidine (20 Ci/mmol: Dupont NEN, MA, U.S.A.), ^3H-uridine (42.7 Ci/mmol/Dupont NEN, MA, U.S.A.) and ^3H-leucine (52 Ci/mmol: Dupont NEN) was estimated after precipitation with trichloroacetic acid (TCA). After a 20 hr incubation with the chelators, ^3H-leucine, ^3H-uridine or ^3H-thymidine (1 μCi/ml) were then added for 2 hrs at 37° C. Subsequently, petri dishes containing cell cultures were placed on ice and washed four times with ice-cold Hanks' balanced salt solution (BSS) and the cells detached from the plate using 1 mM EDTA in Ca/Mg-free saline. The cells were then pelleted by centrifugation, the supernatant removed and the pellet frozen at −70° C. After thawing the cells on ice, 1 ml of ice-cold 20% TCA was added and the solution then vortexed and kept on ice for 1 hr with periodic mixing. This solution was then centrifuged at 15,000 rpm for 15 mins at 4° C. and the supernatant removed. The pellet was then washed twice with 1 ml of ice-cold 10% TCA. The pellet was dissolved in 0.5 ml of 1 M NaOH and transferred to scintillation tubes with 3 ml of scintillant. Radioactivity was measured on a β-scintillation counter (LKB Wallace, Finland).
Table 3. The effect of the chelators on ^3H-thymidine, ^3H-leucine, or ^3H-uridine incorporation into SK-N-MC neuroepithelioma cells. Cells were incubated for 20 hr at 37° C. with either DFO (100 μM) or the other chelators (50 μM). Following this, either ^3H-thymidine, ^3H-leucine, or ^3H-uridine (1 μCi/mL) were added and the cells incubated for an additional 2 h at 37° C. (see Methods for details). Results are Mean±SD (4–5 determinations) from a typical experiment of 2–4 experiments performed.

[7] = Fe-overloaded patients (Olivieri et al.); cited from earlier work

IRP-RNA binding activity compared to the control (FIG. 5) [1]: decreased
Compound: Nc1ccc(C(=O)NN=Cc2ccccn2)cc1 [PCAH, 2-pyridylcarboxaldehyde p-aminobenzoyl hydrazone]
release of cellular 59Fe (FIG. 2A) [2]: did not appreciably increase
cellular 59Fe mobilized from 59Fe-loaded reticulocytes after 240 min ([3]; FIG. 7): 15%
59Fe uptake from 59Fe-Tf, % of the control value (FIG. 2B) [4]: no effect

IRP-RNA binding activity compared to the control (FIG. 5) [1]: decreased
Compound: O=C(NN=Cc1ccccn1)c1ccc(O)cc1 [PCHH, 2-pyridylcarboxaldehyde p-hydroxybenzoyl hydrazone]
release of cellular 59Fe (FIG. 2A) [2]: did not appreciably increase
cellular 59Fe released from 59Fe-loaded reticulocytes, 1 h reincubation (FIG. 9) ([3]; 3 determinations): very low activity
cellular 59Fe mobilized from 59Fe-loaded reticulocytes after 240 min ([3]; FIG. 7): 6%
59Fe uptake from 59Fe-Tf, % of the control value (FIG. 2B) [4]: no effect

IRP-RNA binding activity compared to the control (FIG. 5) [1]: little effect
Compound: O=C(NN=Cc1ccccn1)c1ccncc1 [PCIH, 2-pyridylcarboxaldehyde isonicotinoyl hydrazone]
cellular 59Fe mobilized from 59Fe-loaded reticulocytes after 15 min ([3]; chelator 200 μM, 15 min incubation, 37° C., FIG. 7, 3 determinations): 21±1%
cellular 59Fe released from 59Fe-loaded reticulocytes, 1 h reincubation (FIG. 9) ([3]; 3 determinations): 31±1%
cellular 59Fe release from reticulocytes as a function of incubation time (FIG. 7), rank in words ([3]; eight compounds, 200 μM, reincubated up to 240 min): most effective
59Fe uptake from 59Fe-Tf, % of the control value (FIG. 2B) [4]: slightly more effective than DFO

aqueous solubility, in words (aqueous solubility): most soluble
Compound: Cl.Cl.O=C(NN=Cc1ccccn1)c1ccncc1 [PCIH-2HCl]

aqueous solubility, in words (aqueous solubility): lowest aqueous solubility of the series
Compound: Cl.O=C(NN=Cc1ccccn1)c1cccs1 [PCTH-HCl]

IRP-RNA binding activity compared to the control (FIG. 5) [1]: little effect
IRP-RNA binding activity at higher concentrations ([5]; higher concentrations than 25 μM, not specified): did increase
Compound: Cc1ncc(CO)c(C=NNC(=O)c2ccncc2)c1O [PIH, pyridoxal isonicotinoyl hydrazone, reference compound]
cellular 59Fe released from 59Fe-loaded reticulocytes, 1 h reincubation (FIG. 9) ([3]; 3 determinations): 18±1%
3H-Leucine incorporation, % Control [6]: 84 ± 5 % Control
3H-Thymidine incorporation, % Control [6]: 52 % Control and 52 ± 9 % Control
3H-Uridine incorporation, % Control [6]: 56 ± 9 % Control

Compound: Cc1c(O)c(=O)ccn1C [deferiprone, 1,2-dimethyl-3-hydroxypyrid-4-one]
adverse outcome of treatment of patients [7]: hepatic fibrosis and an increase in liver Fe levels

Compound: ferric ammonium citrate [FAC]
IRP-RNA binding activity compared to the control (FIG. 5) [5]: appreciable decrease
